The record followed here is ChEMBL document CHEMBL5042544, “Discovery of a Potent and Selective ATAD2 Bromodomain Inhibitor with Antiproliferative Activity in Breast Cancer Models” (J Med Chem, 2022).

The structures appear in SMILES notation.

The term IC50 denotes the concentration that inhibits the measured activity by half. One may read the Kd as the constant that tells how readily two partners part at equilibrium.

The target of experiment [1] is Bromodomain-containing protein 3 (Homo sapiens, UniProt Q15059). Put plainly: Binding affinity to human BRD3 bromodomain 1 assessed as residual activity at 300 nM by BROMOscan method relative to control.
Experiment [2] addresses T1, ATPase family AAA domain-containing protein 2 (Homo sapiens, UniProt Q6PL18).
T1 sequence (Q6PL18 whole entry): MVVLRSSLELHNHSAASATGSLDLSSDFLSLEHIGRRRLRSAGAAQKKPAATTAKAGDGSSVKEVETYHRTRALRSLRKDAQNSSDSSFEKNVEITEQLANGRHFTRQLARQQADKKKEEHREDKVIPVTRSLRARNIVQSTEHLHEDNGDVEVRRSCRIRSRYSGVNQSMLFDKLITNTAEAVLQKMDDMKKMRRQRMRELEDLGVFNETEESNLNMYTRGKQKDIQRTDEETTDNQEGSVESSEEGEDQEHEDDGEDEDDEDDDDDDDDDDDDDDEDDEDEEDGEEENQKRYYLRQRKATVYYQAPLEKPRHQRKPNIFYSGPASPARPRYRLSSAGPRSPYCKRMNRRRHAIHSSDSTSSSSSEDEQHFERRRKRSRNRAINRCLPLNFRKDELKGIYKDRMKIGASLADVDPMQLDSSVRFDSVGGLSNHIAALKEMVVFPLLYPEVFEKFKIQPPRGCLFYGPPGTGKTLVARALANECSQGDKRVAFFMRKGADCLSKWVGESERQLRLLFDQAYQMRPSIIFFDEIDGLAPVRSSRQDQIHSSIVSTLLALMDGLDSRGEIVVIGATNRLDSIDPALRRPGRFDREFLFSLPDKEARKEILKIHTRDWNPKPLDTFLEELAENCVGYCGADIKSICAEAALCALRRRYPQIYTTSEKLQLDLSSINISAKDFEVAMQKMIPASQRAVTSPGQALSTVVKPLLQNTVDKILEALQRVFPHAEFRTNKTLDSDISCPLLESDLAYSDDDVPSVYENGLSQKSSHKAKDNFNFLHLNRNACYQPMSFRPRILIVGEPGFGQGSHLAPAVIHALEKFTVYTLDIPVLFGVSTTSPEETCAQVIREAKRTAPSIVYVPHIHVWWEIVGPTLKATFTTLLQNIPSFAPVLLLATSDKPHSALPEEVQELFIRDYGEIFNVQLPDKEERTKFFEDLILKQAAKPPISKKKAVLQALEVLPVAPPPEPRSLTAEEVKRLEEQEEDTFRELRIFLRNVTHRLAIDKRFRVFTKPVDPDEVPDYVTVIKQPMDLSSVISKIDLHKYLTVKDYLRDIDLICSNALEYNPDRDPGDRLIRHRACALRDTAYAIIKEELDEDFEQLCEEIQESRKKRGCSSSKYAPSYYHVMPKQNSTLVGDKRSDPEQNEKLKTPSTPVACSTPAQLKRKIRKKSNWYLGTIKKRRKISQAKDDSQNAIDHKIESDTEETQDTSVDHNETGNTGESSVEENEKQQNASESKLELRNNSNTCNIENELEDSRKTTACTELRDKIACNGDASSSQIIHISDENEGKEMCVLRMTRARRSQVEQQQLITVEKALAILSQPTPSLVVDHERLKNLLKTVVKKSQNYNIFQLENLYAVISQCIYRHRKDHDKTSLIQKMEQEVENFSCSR
Put plainly: Displacement of Halo-tagged Histone H3.3 from Nanoluc-ATAD2A BD (962 to 1119 residues) (unknown origin) transfected in human HCT116 cells incubated for 18 hrs by NanoBRET assay. The experiment is classed as cell-based, HCT-116. On the technique in general: In BRET a luciferase serves as donor, and the signal depends on an acceptor being close.

For experiment [3], the target named is T1, ATPase family AAA domain-containing protein 2. Put plainly: Displacement of Halo-tagged Histone H3.3 from Nanoluc-ATAD2 BD (962 to 1119 residues) (unknown origin) transfected in human HCT116 cells incubated for 18 hrs in presence of efflux inhibitor verapamil by NanoBRET assay. Format: cell-based, HCT-116.
Experiment [4] concerns the target Histone acetyltransferase KAT2B (Homo sapiens, UniProt Q92831). Put plainly: Binding affinity to human PCAF bromodomain assessed as residual activity at 300 nM by BROMOscan method relative to control.
Experiment [5] concerns the target Bromodomain and WD repeat-containing protein 1 (Homo sapiens, UniProt Q9NSI6). Briefly: Binding affinity to human WDR9 bromodomain 2 assessed as dissociation constant by BROMOscan method.
Experiment [6] concerns the target T2, Chromatin remodeling regulator CECR2 (Homo sapiens, UniProt Q9BXF3). Briefly: Binding affinity to human CECR2 bromodomain assessed as dissociation constant by BROMOscan method.
The target in experiment [7] is T2, Chromatin remodeling regulator CECR2. Put plainly: Binding affinity to human CECR2 bromodomain assessed as residual activity at 300 nM by BROMOscan method relative to control.
For experiment [8], the target named is Bromodomain-containing protein 2 (Homo sapiens, UniProt P25440). Briefly: Binding affinity to human BRD2 bromodomain 2 assessed as residual activity at 300 nM by BROMOscan method relative to control.
Chain of Bromodomain-containing protein 2 (P25440 whole entry, looked up): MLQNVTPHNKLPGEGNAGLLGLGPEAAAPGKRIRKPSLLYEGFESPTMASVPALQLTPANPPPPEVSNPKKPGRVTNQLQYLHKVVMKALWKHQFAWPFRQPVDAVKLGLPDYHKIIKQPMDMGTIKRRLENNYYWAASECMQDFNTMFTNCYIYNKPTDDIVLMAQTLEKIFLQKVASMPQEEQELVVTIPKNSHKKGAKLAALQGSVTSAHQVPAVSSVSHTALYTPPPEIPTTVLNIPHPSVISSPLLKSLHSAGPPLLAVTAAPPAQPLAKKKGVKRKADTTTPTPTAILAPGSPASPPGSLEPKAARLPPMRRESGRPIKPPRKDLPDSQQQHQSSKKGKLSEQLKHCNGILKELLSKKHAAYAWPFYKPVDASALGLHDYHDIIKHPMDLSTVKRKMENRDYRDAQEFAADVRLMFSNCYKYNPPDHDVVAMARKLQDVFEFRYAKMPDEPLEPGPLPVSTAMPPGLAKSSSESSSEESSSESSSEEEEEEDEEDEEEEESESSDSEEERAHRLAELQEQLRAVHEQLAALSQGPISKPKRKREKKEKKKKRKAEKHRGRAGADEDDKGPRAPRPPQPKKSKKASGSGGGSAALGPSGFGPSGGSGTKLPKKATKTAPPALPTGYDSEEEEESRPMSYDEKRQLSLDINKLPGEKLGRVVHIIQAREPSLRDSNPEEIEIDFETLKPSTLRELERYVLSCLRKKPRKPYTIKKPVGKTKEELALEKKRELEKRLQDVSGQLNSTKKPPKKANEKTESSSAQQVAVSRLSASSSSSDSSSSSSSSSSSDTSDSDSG

Chain of Bromodomain and WD repeat-containing protein 1 (Q9NSI6 whole entry): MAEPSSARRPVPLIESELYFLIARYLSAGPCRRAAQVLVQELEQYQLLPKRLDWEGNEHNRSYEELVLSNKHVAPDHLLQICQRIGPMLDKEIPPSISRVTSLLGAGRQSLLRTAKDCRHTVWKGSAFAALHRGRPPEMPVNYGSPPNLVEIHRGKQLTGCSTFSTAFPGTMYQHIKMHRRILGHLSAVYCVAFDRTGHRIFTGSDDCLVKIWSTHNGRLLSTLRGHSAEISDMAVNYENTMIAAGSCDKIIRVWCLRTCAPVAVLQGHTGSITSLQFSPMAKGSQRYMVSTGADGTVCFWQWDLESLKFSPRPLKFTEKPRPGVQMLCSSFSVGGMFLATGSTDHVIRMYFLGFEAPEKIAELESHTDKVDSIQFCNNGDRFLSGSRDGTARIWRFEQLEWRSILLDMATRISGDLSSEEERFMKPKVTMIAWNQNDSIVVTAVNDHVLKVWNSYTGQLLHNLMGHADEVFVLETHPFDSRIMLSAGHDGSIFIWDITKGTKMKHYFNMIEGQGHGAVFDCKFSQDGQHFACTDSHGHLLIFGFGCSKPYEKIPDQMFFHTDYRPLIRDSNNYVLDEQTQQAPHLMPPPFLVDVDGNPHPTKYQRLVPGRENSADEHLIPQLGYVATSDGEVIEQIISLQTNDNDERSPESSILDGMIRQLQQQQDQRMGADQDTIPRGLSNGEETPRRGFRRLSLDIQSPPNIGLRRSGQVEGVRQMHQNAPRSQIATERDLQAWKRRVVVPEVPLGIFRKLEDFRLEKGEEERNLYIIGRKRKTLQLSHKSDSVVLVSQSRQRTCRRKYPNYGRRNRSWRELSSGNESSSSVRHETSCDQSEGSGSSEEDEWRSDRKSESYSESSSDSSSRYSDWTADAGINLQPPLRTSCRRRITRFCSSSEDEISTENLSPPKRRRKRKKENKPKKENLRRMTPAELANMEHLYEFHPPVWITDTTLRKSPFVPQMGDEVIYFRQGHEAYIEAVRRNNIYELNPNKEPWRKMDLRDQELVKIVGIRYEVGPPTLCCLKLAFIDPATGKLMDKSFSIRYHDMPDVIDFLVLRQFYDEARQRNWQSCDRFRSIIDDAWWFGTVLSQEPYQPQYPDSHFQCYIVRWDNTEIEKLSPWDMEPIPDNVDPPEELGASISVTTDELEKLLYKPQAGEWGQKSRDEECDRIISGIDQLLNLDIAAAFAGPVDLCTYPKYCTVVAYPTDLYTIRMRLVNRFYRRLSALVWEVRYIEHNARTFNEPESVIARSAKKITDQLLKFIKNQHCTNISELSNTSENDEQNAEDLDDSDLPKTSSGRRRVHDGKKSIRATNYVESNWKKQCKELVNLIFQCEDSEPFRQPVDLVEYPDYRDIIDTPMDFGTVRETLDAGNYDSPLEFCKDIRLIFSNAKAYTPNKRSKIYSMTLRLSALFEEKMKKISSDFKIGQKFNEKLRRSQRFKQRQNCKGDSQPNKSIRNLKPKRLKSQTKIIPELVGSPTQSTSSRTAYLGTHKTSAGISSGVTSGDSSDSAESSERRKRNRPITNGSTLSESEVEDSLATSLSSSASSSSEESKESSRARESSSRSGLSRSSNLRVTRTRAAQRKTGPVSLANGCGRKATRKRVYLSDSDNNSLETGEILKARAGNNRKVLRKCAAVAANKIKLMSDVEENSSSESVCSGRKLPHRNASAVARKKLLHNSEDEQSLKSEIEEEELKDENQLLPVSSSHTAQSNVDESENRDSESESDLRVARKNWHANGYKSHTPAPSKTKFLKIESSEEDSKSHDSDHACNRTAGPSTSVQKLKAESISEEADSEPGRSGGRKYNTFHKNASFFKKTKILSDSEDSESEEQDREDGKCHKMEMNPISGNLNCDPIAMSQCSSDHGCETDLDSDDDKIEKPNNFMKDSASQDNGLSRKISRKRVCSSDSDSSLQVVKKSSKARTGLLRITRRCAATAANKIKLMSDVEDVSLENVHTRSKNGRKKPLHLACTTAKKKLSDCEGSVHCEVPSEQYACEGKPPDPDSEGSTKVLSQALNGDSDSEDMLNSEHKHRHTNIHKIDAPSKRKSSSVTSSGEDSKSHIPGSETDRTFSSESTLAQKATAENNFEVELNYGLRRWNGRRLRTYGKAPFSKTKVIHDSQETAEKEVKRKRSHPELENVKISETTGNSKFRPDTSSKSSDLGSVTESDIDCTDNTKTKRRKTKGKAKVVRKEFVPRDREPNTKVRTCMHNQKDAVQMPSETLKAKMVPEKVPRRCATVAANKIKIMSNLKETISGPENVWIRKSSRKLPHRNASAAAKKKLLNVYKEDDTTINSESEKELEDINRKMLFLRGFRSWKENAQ
Chain of Bromodomain-containing protein 3 (Q15059 2-726 limits assumed): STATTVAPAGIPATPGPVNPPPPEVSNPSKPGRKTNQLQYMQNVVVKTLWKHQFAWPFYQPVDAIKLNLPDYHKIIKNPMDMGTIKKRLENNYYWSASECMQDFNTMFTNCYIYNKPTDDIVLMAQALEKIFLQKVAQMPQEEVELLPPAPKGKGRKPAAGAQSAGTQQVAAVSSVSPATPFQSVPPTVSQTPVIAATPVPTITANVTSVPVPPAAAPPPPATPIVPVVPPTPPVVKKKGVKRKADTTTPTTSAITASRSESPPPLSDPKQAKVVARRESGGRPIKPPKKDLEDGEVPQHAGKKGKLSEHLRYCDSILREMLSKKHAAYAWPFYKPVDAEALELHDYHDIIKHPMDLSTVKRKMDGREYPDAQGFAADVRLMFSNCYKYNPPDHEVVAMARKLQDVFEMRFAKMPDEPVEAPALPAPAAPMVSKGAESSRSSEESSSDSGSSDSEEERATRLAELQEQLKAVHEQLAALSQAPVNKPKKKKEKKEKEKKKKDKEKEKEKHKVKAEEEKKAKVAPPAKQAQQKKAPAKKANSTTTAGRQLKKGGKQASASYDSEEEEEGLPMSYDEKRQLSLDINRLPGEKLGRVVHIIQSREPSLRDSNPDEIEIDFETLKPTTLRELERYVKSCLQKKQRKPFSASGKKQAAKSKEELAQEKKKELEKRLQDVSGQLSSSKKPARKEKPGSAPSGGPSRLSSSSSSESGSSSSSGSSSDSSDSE
Chain of Histone acetyltransferase KAT2B (Q92831 whole entry, looked up): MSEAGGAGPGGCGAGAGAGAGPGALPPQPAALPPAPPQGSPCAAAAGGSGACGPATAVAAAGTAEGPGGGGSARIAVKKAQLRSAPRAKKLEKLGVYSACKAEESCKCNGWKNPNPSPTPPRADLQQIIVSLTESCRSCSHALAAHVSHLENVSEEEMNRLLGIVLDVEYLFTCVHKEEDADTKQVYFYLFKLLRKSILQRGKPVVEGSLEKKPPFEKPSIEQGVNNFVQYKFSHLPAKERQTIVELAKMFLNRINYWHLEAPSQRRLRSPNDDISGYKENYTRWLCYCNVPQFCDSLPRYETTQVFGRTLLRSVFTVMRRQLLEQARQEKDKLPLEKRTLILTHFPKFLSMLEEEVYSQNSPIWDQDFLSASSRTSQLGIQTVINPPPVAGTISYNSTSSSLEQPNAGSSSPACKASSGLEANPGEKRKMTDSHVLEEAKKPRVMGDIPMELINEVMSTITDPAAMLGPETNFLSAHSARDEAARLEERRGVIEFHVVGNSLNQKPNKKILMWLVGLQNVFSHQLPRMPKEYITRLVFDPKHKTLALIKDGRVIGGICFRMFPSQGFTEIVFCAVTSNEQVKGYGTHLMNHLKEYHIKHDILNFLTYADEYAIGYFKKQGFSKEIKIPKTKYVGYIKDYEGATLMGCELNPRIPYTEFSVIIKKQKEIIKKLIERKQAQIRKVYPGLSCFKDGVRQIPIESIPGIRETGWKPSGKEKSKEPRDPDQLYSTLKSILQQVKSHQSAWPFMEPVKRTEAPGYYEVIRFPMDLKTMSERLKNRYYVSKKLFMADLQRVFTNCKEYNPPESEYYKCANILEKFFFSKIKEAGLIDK

As to `Cc1nnc2c(NC3CCN(CC(C)(C)F)CC3)cc(C(=O)N3[C@@H]4c5ccccc5C[C@H]3C(=O)N[C@@H]4C(C)C)nn12`, the Activity in experiment [1] is 90%; in experiment [4], 62%; in experiment [7], 59%; in experiment [8], 31%. For the same compound, the IC50 in experiment [2] is 126 nM; in experiment [3], 50.1 nM. Besides, the Kd in experiment [5] and in experiment [6] was above 316 nM in each case.
